The test system of data set [1] is MCF7. The experiment in a line: Cytotoxicity against human MCF7 cells assessed as reduction in cell viability incubated for 24 hrs by MTT assay. To be noted: MCF7, 24 h. The format is functional, cell-based. A general note: Tetrazolium assays rely on reduction of a dye to a coloured formazan, in cell work by metabolically active cells.
Data set [2] has as its system Quadruplex DNA. The experiment in a line: Binding affinity to c-MYC G-quadruplex DNA (unknown origin) assessed as association constant by fluorescence spectroscopy. The format is nucleic-acid assay.
Data set [3] can be described thus: Cytotoxicity against mouse C2C12 cells assessed as reduction in cell viability incubated for 24 hrs by MTT assay. In kind it is toxicity, cell-based.
The subject of data set [4] is HepG2. Kind of data set: Cytotoxicity against human HepG2 cells assessed as reduction in cell viability incubated for 24 hrs by MTT assay. To be noted: HepG2, 24 h. In kind it is functional, cell-based.
For data set [5], the system named is HCT-116. Kind of data set: Cytotoxicity against human HCT-116 cells assessed as reduction in cell viability incubated for 24 hrs by MTT assay. In kind it is functional, cell-based. To be noted: HCT-116, 24 h.
Data set [6] has as its system Quadruplex DNA. The experiment in a line: Thermal stabilization of c-MYC G-quadruplex DNA (unknown origin) assessed as change in melting temperature at 1:5 ratio by FRET melting assay. In kind it is nucleic-acid assay.
In data set [7] the test system is Quadruplex DNA. The experiment in a line: Thermal stabilization of c-MYC G-quadruplex DNA (unknown origin) assessed as change in melting temperature at 1:5 ratio by circular dichroism spectroscopy. In kind it is nucleic-acid assay.
The test system of data set [8] is Quadruplex DNA. The experiment in a line: Binding affinity to c-MYC G-quadruplex DNA (unknown origin) assessed as association rate constant by fluorometric titration method. The format is nucleic-acid assay.
The test system of data set [9] is Quadruplex DNA. The experiment in a line: Thermal stabilization of c-MYC G-quadruplex DNA (unknown origin) assessed as change in melting temperature at 1:10 ratio by FRET melting assay. In kind it is nucleic-acid assay.
Data set [10] can be described thus: Cytotoxicity against human KMM-1 cells assessed as inhibition of cell viability incubated for 72 hrs by MTS assay. In kind it is functional, cell-based. To be noted: KMM-1, 72 h.
Data set [11] in a line: Cytotoxicity against human KMS-27 cells assessed as inhibition of cell viability incubated for 72 hrs by MTS assay. In kind it is functional, cell-based. To be noted: KMS-27, 72 h.
Data set [12] deals with AMO1. Kind of data set: Cytotoxicity against human AMO1 cells assessed as inhibition of cell viability incubated for 72 hrs by MTS assay. The format is functional, cell-based. The following applies: AMO1, 72 h.
Data set [13] deals with LP-1. Kind of data set: Cytotoxicity against human LP-1 cells assessed as inhibition of cell viability incubated for 72 hrs by MTS assay. In kind it is functional, cell-based. The following applies: LP-1, 72 h.
Data set [14] deals with Quadruplex DNA. Kind of data set: Binding affinity to c-MYC G-quadruplex (Pu22) DNA (unknown origin) assessed as association rate constant by surface plasmon resonance analysis. The format is nucleic-acid assay. Background: SPR reads the build-up and loss of mass on a sensor chip optically.
Data set [15] relates to L-363. The experiment in a line: Cytotoxicity against human L-363 cells assessed as inhibition of cell viability incubated for 72 hrs by MTS assay. The format is functional, cell-based. To be noted: L-363, 72 h.
The nature of data set [16]: Cytotoxicity against human MOLP8 cells assessed as inhibition of cell viability incubated for 72 hrs by MTS assay. The format is functional, cell-based. To be noted: MOLP-8, 72 h.
Data set [17] deals with KMS-12-PE. Kind of data set: Cytotoxicity against human KMS-12-PE cells assessed as inhibition of cell viability incubated for 72 hrs by MTS assay. In kind it is functional, cell-based.
Data set [18] deals with Quadruplex DNA. The experiment in a line: Thermal stabilization of c-MYC G-quadruplex (Pu22) DNA (unknown origin) assessed as change in melting temperature at 1:1 ratio by circular dichroism spectroscopy. The format is nucleic-acid assay.
In data set [19] the test system is RPMI-8226. Kind of data set: Cytotoxicity against human RPMI-8226 cells assessed as inhibition of cell viability incubated for 72 hrs by MTS assay. In kind it is functional, cell-based. To be noted: RPMI-8226, 72 h.
Data set [20] can be described thus: Cytotoxicity against human JIM1 cells assessed as inhibition of cell viability incubated for 72 hrs by MTS assay. The format is functional, cell-based. The following applies: JIM1, 72 h.
The nature of data set [21]: Cytotoxicity against human ARD cells assessed as inhibition of cell viability incubated for 72 hrs by MTS assay. The format is functional, cell-based.
In data set [22] the test system is HeLa. Kind of data set: Antiproliferative activity against human HeLa cells assessed as inhibition of cell growth by XTT assay. In kind it is functional, cell-based.
Data set [23] in a line: Antiproliferative activity against human Kidney epithelial cells assessed as inhibition of cell growth by XTT assay. In kind it is toxicity, cell-based.
The subject of data set [24] is Quadruplex DNA. The experiment in a line: Binding affinity to c-MYC G-quadruplex (Pu22) DNA (unknown origin) assessed as association constant by fluorescence spectroscopy. The format is nucleic-acid assay.
Data set [25] deals with Quadruplex DNA. The experiment in a line: Binding affinity to c-MYC G-quadruplex (Pu22) DNA (unknown origin) assessed as association rate constant by isothermal titration calorimetry method. The format is nucleic-acid assay.
The test system of data set [26] is Quadruplex DNA. The experiment in a line: Binding affinity to c-MYC G-quadruplex DNA (unknown origin) assessed as first order binding constant by electrospray ionization mass spectrometry. The format is nucleic-acid assay.
Data set [27] relates to Quadruplex DNA. The experiment in a line: Thermal stabilization of c-MYC G-quadruplex DNA (unknown origin) assessed as change in melting temperature at 1:2.5 ratio by FRET melting assay. In kind it is nucleic-acid assay.
For data set [28], the system named is Quadruplex DNA. The experiment in a line: Binding affinity to c-MYC G-quadruplex DNA (unknown origin) assessed as second order binding constant by electrospray ionization mass spectrometry. The format is nucleic-acid assay.
For data set [29], the system named is Quadruplex DNA. Kind of data set: Thermal stabilization of c-MYC G-quadruplex DNA (unknown origin) assessed as change in melting temperature at 1:2 ratio by circular dichroism spectroscopy. In kind it is nucleic-acid assay.

Take `CN(C)CCCNC(=O)c1ccc(-n2cc(-c3ccc4c(c3)c3cc(-c5cn(-c6ccc(C(=O)NCCCN(C)C)cc6)nn5)ccc3n4CCCN(C)C)nn2)cc1`: the concentration for half-maximal inhibition (IC50) in [1] was 6.8 µM; in data set [4] it was 4.3 µM; in data set [5] it was 8.2 µM. The Ka in [2] was 3.3 10^6/M. In addition, in data set [3], the IC50 at 24 h is more than 45 µM. Also, the ΔTm in data set [6] is 22.7 °C.

`c1cc2ccc3ccc4nc3c2nc1CNCCCCCCNC4`: the ΔTm turned out to be 19.3 °C in data set [7] and 11.3 °C in data set [9]. The Ka in [8] was 1.4 10^5/M.

With `Cc1ccc(NC(=O)c2c(C)oc3ccc(O)c(CN4CCCCCC4)c23)cc1`, the IC50 in data set [10] came out at 15.6 µM; in data set [11] it was 9.6 µM; in data set [12], 11.3 µM; in data set [13] it was 8.3 µM; in [15], 5.8 µM; in data set [16], 8.3 µM. Besides, the IC50 stood at 6.5 µM in data set [17], 15.9 µM in data set [19], 14.1 µM in data set [20] and 12.9 µM in data set [21]. Further, in data set [14], the Ka is 2.2 10^5/M. For the same compound, the ΔTm in data set [18] came to 2.1 °C.

For `CN(CCCCn1cc(CCCC(=O)OC[C@H]2O[C@@H](n3cnc4c(=O)[nH]c(N)nc43)[C@@H]3OC(C)(C)O[C@@H]32)nn1)Cc1c2ccccc2c(CN(C)CCCCn2cc(CCCC(=O)OC[C@H]3O[C@@H](n4cnc5c(=O)[nH]c(N)nc54)[C@@H]4OC(C)(C)O[C@@H]43)nn2)c2ccccc12`, the IC50 in [22] is 6.2 µM; in data set [23], more than 50 µM. Moreover, the Ka in data set [2] is 2.56 10^6/M. The ΔTm in [6] is 8.8 °C.

For the compound `C(=N\Nc1nc(Nc2ccccc2)nc(Nc2ccccc2)n1)/c1c2ccccc2cc2ccccc12`, the Ka in data set [24] was 8.33 10^5/M; in data set [25] it was 9.53 10^4/M.

As to `O=c1c2ccc3c4c(N5CCCCC5)cc5c(=O)n(CCN6CCCCC6)c(=O)c6cc7c(CCN8CCCCC8)cc8cc(c(=O)n1CCN1CCCCC1)c2c3c8c7c4c56`, the K in [26] is 1.2 10^6/M; in [28], 6.3 10^5/M. Also, the ΔTm in data set [27] stood at 16.4 °C.

Consider `Nc1nc(-c2ccccc2)c2c(n1)-c1cc(OCCN3CCCC3)ccc1C2=O`, for which, in data set [7], the ΔTm worked out at 7.8 °C. The Ka in data set [2] is 1 10^5/M.

For `CN(C)CCCNC(=O)c1ccc(-n2cc(-c3ccc4c(c3)c3ccccc3n4-c3ccc(C(=O)NCCCN(C)C)cc3)nn2)cc1`, the Ka in [2] is 5.9 10^6/M. Besides, the ΔTm in [9] was determined as 19.3 °C. The IC50 in data set [5] is 2.1 µM.

Take `CN(C)c1ccc2cc3c([n+](CCCCCCCCNC(=O)c4ccc(I)cc4)c2c1)C=CCC3`: in data set [8], the Ka was 7.4 10^7/M. In data set [29], the ΔTm came out at 33.9 °C.

In the case of `c1cc2ccc3ccc4nc3c2nc1CNCCCCCCNCc1ccc2ccc3ccc(nc3c2n1)CNCCCCCCNC4`, the ΔTm in [7] was found to be 15.1 °C; in [9] it was 17.2 °C. Besides, the Ka in data set [8] is 1.3 10^5/M.

For orientation: IC50 means the concentration that inhibits the measured activity by half. Broadly, the ΔTm is the change in melting temperature against a reference sample.

These data come from ChEMBL document CHEMBL5096149, “Recent Update on Targeting c-MYC G-Quadruplexes by Small Molecules for Anticancer Therapeutics” (J Med Chem, 2021).
